Patent US7060405B2, “Naphthoquinone derivative and electrophotographic photoreceptor containing the same” (Samsung Electronics Co., Ltd., priority 2003, dated 2006)

Assay: solubility in an organic solvent
Type: physicochemical
Details: compared to a conventional electron-transporting material
Procedure: In addition, two properties of the naphthoquinone derivative of Formula 2 that was used in Example 1 was measured: solubility in an organic solvent and compatibility with a binder resin.

solubility in an organic solvent: improved
Structure (SMILES): COc1ccc(C(=O)C2=C(c3ccccc3)C(=O)c3ccccc3C2=O)cc1 [Formula 2]
